Broadly, the EC50 is the concentration that produces a half-maximal response. In general, IC50 refers to the midpoint of a concentration-inhibition curve.

SMILES strings stand for the structures. Active and inactive are the calls of the source.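 Rule for the calls: active = compounds giving half or more protection of infected cells from virus-caused growth loss, again on retest; inactive = the rest.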 Where only a bound is given, the exact number is not on record here.

The test relates to CEM cells HIV-1 protection, formazan growth assay. As to the kind of experiment: NCI AIDS Antiviral Assay. The following applies: for IC50: measured here: growth of uninfected CEM cells. Put shortly:
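Protection of CEM cells against HIV-1 measured as cell growth via soluble formazan read-out, with five concentrations tested on both infected and uninfected cells; failure to protect may reflect toxicity.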

`O=C1NCCCCCCCCNC(=O)c2cccc1c2`: the EC50 was greater than 13.8 µM and the IC50 was greater than 13.8 µM.

On to `O=C(CC(=O)Nc1ccccc1F)N/N=C/c1ccccc1`, for which the outcome was inactive.

Regarding `O=S1(=O)NCNc2cc(C(F)(F)F)ccc21`, the EC50 is greater than 1000 µM and the IC50 was determined as 380 µM.

Turning to `C/C(=N/NC(=O)c1ccccc1S(N)(=O)=O)C(CN1CCCCC1)C(C1=C(O)C2C=CC=CC2OC1=O)c1ccccc1` (stereo not drawn), the EC50 was greater than 21.4 µM and the IC50 is greater than 21.4 µM.

With `O=C(Cn1cc(-c2ccccc2)nn1)NC1CCCC1`, the EC50 was greater than 200 µM and the concentration for half-maximal inhibition (IC50) is greater than 200 µM.

For `CC(=O)C1=C(C)NC2C=CC=CN12` (stereo not drawn), the EC50 was greater than 1410 µM and the 50% inhibitory concentration (IC50) came to 676 µM.

`O=C(N/N=C(/CCN1CCCC1)CC(c1ccccc1)c1c(O)c2ccccc2oc1=O)c1ccncc1` (stereo not drawn): the EC50 is greater than 34.7 µM.

Consider `C#CC1=CC(=O)C(OC)=CC1=O`, for which the EC50 was greater than 200 µM and the IC50 was found to be 31.6 µM.

Turning to `O=C(NCCCCCCNC(=O)n1cc(F)c(=O)[nH]c1=O)NC1C(O)OC(CO)C(O)C1O` (stereo not drawn), the outcome was inactive.

Regarding `O=C(Nc1ccccc1C(=O)Nc1nccs1)c1ccccc1`, the EC50 was greater than 200 µM and the half-inhibitory concentration (IC50) turned out to be 32.4 µM.

For the molecule `CCOC(=O)Cn1c(=O)cc(C=O)c2ccccc21`, the EC50 was greater than 200 µM and the half-inhibitory concentration (IC50) was 15.5 µM.

For `O=C(O)c1cc(Cc2ccc(O)c(C(=O)O)c2)ccc1O`, the concentration for a half-maximal effect (EC50) was 562 µM, the outcome was active and the 50% inhibitory concentration (IC50) was found to be 871 µM.

Take `CC(NC1=NCCO1)c1ccco1` (stereo not drawn): the EC50 was greater than 200 µM and the IC50 is greater than 200 µM.

Take `Cc1cccc(N2CCN(S(=O)(=O)c3ccc(Cl)cc3)C2=N)c1C`: the EC50 was greater than 200 µM and the IC50 is greater than 200 µM.

On to `Cn1c(=O)c2[nH]c(NN)nc2n(C)c1=O`, for which the EC50 is greater than 200 µM and the IC50 stood at 105 µM.

Turning to `C/C(=N/NC(=S)N1CCCCCC1)c1ccccc1O`, the EC50 was greater than 200 µM and the IC50 worked out at 4.27 µM.

For the molecule `CC1OC(OC2C(O[C@H]3CC[C@@]4(C)C(=CC[C@H]5[C@@H]6C[C@@H]7O[C@](O)(CC[C@@H](C)COC8OC(CO)C(O)C(O)C8O)[C@@H](C)[C@@H]7[C@@]6(C)CC[C@@H]54)C3)OC(CO)C(O)C2OC2OC(CO)C(O)C(O)C2O)C(O)C(O)C1O` (stereo partly drawn), the EC50 was greater than 100 µM and the IC50 was determined as 2.51 µM.

With `CCOP(=O)(OCC)/C(C#N)=C\c1ccsc1`, the EC50 is greater than 912 µM and the IC50 is greater than 912 µM.

As to `CC1C2CC(C(C3C(=O)C4CC3C(C)(C)C4C)C2=O)C1(C)C` (stereo not drawn), the EC50 was greater than 437 µM and the IC50 is greater than 437 µM.

Take `CCOC(=O)/C(C#N)=C1\N[C@H](C(=O)OCC)CO1`: the EC50 is greater than 977 µM and the concentration for half-maximal inhibition (IC50) was greater than 977 µM.

As to `C=CCNC(=S)N1CC(C)C(=O)Nc2cc(Cl)ccc21` (stereo not drawn), the EC50 is greater than 200 µM and the IC50 was greater than 200 µM.

Turning to `CCOC(=O)CN1C(=O)C(=O)c2ccccc21`, the EC50 is greater than 200 µM and the IC50 stood at 33.9 µM.

For `C=Cc1c(Cl)nc(C)c(C)c1-c1ccc(OC)c(OC)c1OCc1ccccc1`, the EC50 was greater than 200 µM and the 50% inhibitory concentration (IC50) turned out to be 25.1 µM.

For the molecule `CC(=O)ONC(C(=O)C(C)(C)C)C(=O)C(C)(C)C`, the EC50 was greater than 200 µM and the IC50 is greater than 200 µM.

With `CN(Cc1c2ccccc2cc2ccccc12)S(=O)(=O)c1ccc(-c2c3nc(c(-c4ccc(S(=O)(=O)N(C)Cc5c6ccccc6cc6ccccc56)cc4)c4ccc([nH]4)c(-c4ccc(S(=O)(=O)N(C)Cc5c6ccccc6cc6ccccc56)cc4)c4nc(c(-c5ccc(S(=O)(=O)N(C)Cc6c7ccccc7cc7ccccc67)cc5)c5ccc2[nH]5)C=C4)C=C3)cc1`, the EC50 is greater than 100 µM and the IC50 is greater than 100 µM.

As for `CC(=O)c1cccc(NC(=O)Nc2ncccc2C)c1`, the EC50 is 182 µM and the half-maximal inhibitory concentration (IC50) is greater than 200 µM.

Regarding `Cc1ccc(-c2c(C#N)c(S)n(NS(=O)(=O)c3ccccc3)c(=O)c2C#N)cc1`, the EC50 was greater than 200 µM and the IC50 came out at 18.6 µM.

Turning to `CS(=O)(=O)CCC1CCC(=O)O1` (stereo not drawn), the EC50 is greater than 200 µM and the IC50 was 182 µM.

Consider `COc1ccc(C2Oc3c(c(O)cc4c3[C@H](c3ccc(O)cc3O)[C@H](O)C(c3ccc(O)c(O)c3)O4)C[C@@H]2O)cc1O` (stereo partly drawn), for which the result was inactive.

Consider `O=C1CSC(/C=C/c2ccccc2)N1c1ccc(-n2c(-c3ccccc3)nc3ccccc3c2=O)cc1` (stereo not drawn), for which the EC50 was greater than 200 µM and the IC50 was 105 µM.

On to `CCOC(=O)C(C)c1nc2cc(F)c(N3CCOCC3)cc2[nH]c1=O` (stereo not drawn), for which the EC50 was greater than 200 µM and the IC50 worked out at 95.5 µM.

On to `O=c1[nH]c2nc3ccccc3c(=O)n2/c1=C/c1ccc(Cl)cc1`, for which the EC50 was greater than 200 µM and the IC50 was determined as 11.2 µM.

On to `COc1cc2ccccc2oc1=O`, for which the EC50 is greater than 40.7 µM and the IC50 is greater than 40.7 µM.

With `CN1CC(=O)N(C)c2ncn(Cc3ccccc3)c2C1=O`, the outcome was inactive.

Regarding `COC(=O)/C=C\C(C#N)(C#N)N=Cc1cccc(OC)c1`, the EC50 was greater than 20 µM and the 50% inhibitory concentration (IC50) stood at 1.26 µM.

With `CC1CCC/C(=N/NC(N)=O)C12CC2` (stereo not drawn), the EC50 was greater than 200 µM and the concentration for half-maximal inhibition (IC50) is greater than 200 µM.

Consider `CC1(C)CC(=O)C2=C(C1)OC1=C(CC(C)(C)CC1=O)C2c1ccccc1Cl` (stereo not drawn), for which the EC50 was greater than 200 µM and the IC50 came out at 162 µM.

Consider `O=c1[nH]c(=O)n(C2OC(CF)C(O)C2O)cc1N1CCOCC1` (stereo not drawn), for which the EC50 was greater than 200 µM and the IC50 is greater than 200 µM.

Consider `CO/N=C(\C(=O)[N-][n+]1cnn(CC(=O)O)c1)c1csc(N)n1`, for which the EC50 was greater than 200 µM and the IC50 was greater than 200 µM.

With `COc1ccc(-c2cc(C)n(C3OC(CO)C(O)C(O)C3O)c(=S)c2C#N)cc1` (stereo not drawn), the EC50 is greater than 200 µM and the IC50 worked out at 126 µM.

Take `NC1=NCC(CN2CCCCC2)O1` (stereo not drawn): the EC50 was greater than 200 µM and the 50% inhibitory concentration (IC50) is greater than 200 µM.

For `COP(=O)(CC(=O)CCCCCOC1CCCCO1)OC` (stereo not drawn), the result was inactive.

Consider `COc1cc(N)c2[nH]c3c(C)ccc(C)c3c2c1`, for which the EC50 is greater than 30.2 µM and the IC50 was greater than 30.2 µM.

Consider `Nc1ncnc2c1ncn2C1OC(CO)C2NP(=O)(N(CCCl)CCCl)OC21` (stereo not drawn), for which the EC50 was greater than 200 µM, the result was inactive and the concentration for half-maximal inhibition (IC50) is greater than 200 µM.

As for `Cc1noc2cccc(OCc3ccccc3)c12`, the EC50 was greater than 30.2 µM and the IC50 is greater than 30.2 µM.

On to `COc1c(C)c(C/C=C(\C)CCCCO[Si](C(C)C)(C(C)C)C(C)C)c(OC)c2ccccc12`, for which the EC50 was greater than 200 µM and the IC50 was found to be 53.7 µM.

In the case of `CN(C)C(=S)SSC(C)(C)C`, the EC50 was greater than 200 µM and the IC50 worked out at 8.32 µM.

As for `C#CC(O)/C=C/C(O)CCCC(O)CC#CC(O)C#CC(O)CCCC(O)/C=C/CCCC(=O)CCCCCCCCCCCCCCCC(O)C(O)C#CC(=O)O` (stereo not drawn), the concentration for a half-maximal effect (EC50) was 10 µM and the IC50 is 53.7 µM.

For the molecule `COC(COC(N)=O)C1=C(N2CC2)C(=O)C(C)=C(N2CC2)C1=O` (stereo not drawn), the EC50 was greater than 2 µM and the IC50 worked out at 0.0166 µM.

`CC[N+](CC)=c1ccc2nc3c(cc(N)c4ccccc43)oc-2c1` gave an EC50 greater than 200 µM and an IC50 of 3.8 µM.

In the case of `COc1ccc(-c2c(C)c(C)[nH]c(=O)c2C(=O)O)c(OCc2ccccc2)c1OC`, the result was inactive.

For the molecule `O=C(Nc1ccc(O)cc1C(=O)O)c1ccc(O)cc1`, the EC50 is greater than 229 µM and the IC50 was greater than 229 µM.

On to `Fc1cccc2c(=S)cn[nH]c12`, for which the EC50 is greater than 200 µM and the half-maximal inhibitory concentration (IC50) worked out at 186 µM.

`Cc1ccc([N+](=O)[O-])cc1NC(=O)C(=O)C(C(=O)c1ccccc1F)C1OC(=O)c2ccccc21` (stereo not drawn): the EC50 was greater than 275 µM and the IC50 stood at 8.32 µM.

As to `Cn1ccnc1.Cn1ccnc1.Cn1ccnc1.Cn1ccnc1.[O-][Cl+3]([O-])([O-])[O-].[Pt+2]`, the EC50 was greater than 200 µM and the half-maximal inhibitory concentration (IC50) was greater than 200 µM.

Consider `COc1cc2c(cc1OC)C(Cc1ccc(O)cc1)N(C)CC2` (stereo not drawn), for which the outcome was inactive.

On to `NC(=O)C(=CNc1nc(-c2ccc(Br)cc2)cs1)C(N)=O`, for which the EC50 is greater than 200 µM and the IC50 turned out to be 135 µM.

For `CN(CCSSCCN(C)C(N)=S)C(N)=S`, the EC50 was greater than 200 µM and the IC50 is greater than 200 µM.

For `CCOC(=O)CCN1C(=O)C(=O)N(c2ccc(OC)cc2)C1=S`, the EC50 was greater than 200 µM and the half-inhibitory concentration (IC50) came out at 31.6 µM.

`O=C(O)C1CSC2c3ccccc3C(=O)N12` (stereo not drawn): the EC50 was greater than 200 µM and the IC50 was greater than 200 µM.

In the case of `Nc1ncnc2c1ncn2C1OC(CCP(=O)(O)O)C(O)C1O` (stereo not drawn), the EC50 was greater than 100 µM and the IC50 is greater than 100 µM.

`O=C(CC(C(=O)c1cccs1)c1cccs1)c1ccsc1` (stereo not drawn): the EC50 was greater than 200 µM and the IC50 stood at 11.7 µM.

With `O=C(/C=C\c1ccccc1)Oc1ccc(/C=C2\CCCCC2=O)cc1`, the EC50 is greater than 200 µM and the 50% inhibitory concentration (IC50) turned out to be 7.08 µM.

Consider `CCCC(=O)O[C@H]1[C@@H](OC(C)=O)C/C(C)=C\[C@@H]2OC(=O)[C@]3(C)OC23[C@@H](O)C2C3(C)OC3CC(OC(C)=O)[C@@]21C` (stereo partly drawn), for which the EC50 was greater than 117 µM and the IC50 came out at 32.4 µM.

As to `Cc1cccc(Nc2c3c(nc4ccccc24)CCCCC3)c1`, the result was inactive.

As to `C/C(=N/Nc1ccc([N+](=O)[O-])cc1[N+](=O)[O-])c1ccc(Sc2ccc(/C(C)=N/Nc3ccc([N+](=O)[O-])cc3[N+](=O)[O-])cc2)cc1`, the EC50 was greater than 50.1 µM and the IC50 is greater than 50.1 µM.

As for `CC1(C)NC(C)(C)/C(=N\O)C(=NO)/C1=N/O`, the EC50 is greater than 200 µM and the IC50 is greater than 200 µM.

On to `CCc1c(Cc2cc(C)cc(C)c2)n(COCCCCOC(=O)c2ccccc2)c(=O)[nH]c1=O`, for which the EC50 is 0.00692 µM and the IC50 was 2 µM.

Regarding `C=C(C(=O)C(=O)Oc1ccc(Cl)cc1)C(=O)c1ccc(C)cc1`, the EC50 was greater than 79.4 µM and the concentration for half-maximal inhibition (IC50) is greater than 79.4 µM.

In the case of `Cn1cnc([N+](=O)[O-])c1Sc1nnc(C(F)(F)F)n1C`, the EC50 was greater than 813 µM and the half-inhibitory concentration (IC50) amounted to 4.27 µM.
